# Test system: acetylcholine-induced bronchospasm
# Experiment: Protective action against acetylcholine-induced bronchospasm in conscious guinea pigs
# Assay type: in vivo, guinea pig
# Conditions: 100 μmol/kg p.o.; test 30 min after application; acetylcholine mist 0.06%
# Method: Guinea pigs (250-350 g) in a closed Plexiglas cylinder (volume: 5 l) are exposed to a mist of acetylcholine (0.06% in 0.9% sodium chloride solution; Heyer Use 77 ultrasonic atomizer) twice at an interval of 20 minutes. The time from the start of atomization until there is onset of a marked struggle to breathe (in certain circumstances, a hypoxic convulsion in the lateral position) is measured and designated the latency perid. […] The test substance is administered orally by gavage (standard dose 100 μmol/kg, volume 1 ml of 4% strength methocel suspension in 0.9% strength sodium chloride solution/kg). After 30 minutes, the animals are again exposed to the mist of acetylcholine, and the latency periods are measured. A prolongation of the latency period to […] is regarded as a protective action.
row,Molecule,Tripling of the latency period in N of 10 animals
1,"O=c1ccc(-c2cccc(OC(F)(F)C(F)F)c2)n[nH]1 [Serial No. 2, 6-[3-(1,1,2,2-tetrafluoroethoxy)phenyl]-3[2H]pyridazinone]",8 of 10 animals
2,"Cn1c(=O)c2[nH]cnc2n(C)c1=O [Theophylline, theophylline, reference compound]",3 of 10 animals
3,COc1cc(-c2ccc(=O)[nH]n2)ccc1OC(F)F [compound 5],9 of 10 animals
4,6-(4-difluoromethoxy-3-methoxyphenyl)-3[2H]pyridazinone [Serial No. 5],7 of 10 animals
5,O=c1ccc(-c2ccc(OC(F)F)cc2)n[nH]1 [compound 6],8 of 10 animals
6,O=c1ccc(-c2cccc(OC(F)F)c2)n[nH]1 [compound 7],9 of 10 animals

# Test system: electrically-stimulated left atrium of the rat
# Experiment: Positive inotropic action in vitro on electrically-stimulated left atrium
# Assay type: cell-based
# Conditions: EC40pot. in mol/l; 40% increase in contraction force vs initial value; 31°
# Method: Testing the positive inotropic action of the compounds in vitro on the electrically-stimulated left atrium of the rat is effected as follows:
# Isometric contractions (HSE force sensor K-30; Watanabe recorder, Linear Corder Mark 5) of isolated left atria of rats (.male., 250-300 g) in an organ bath (10 ml, Tyrode nutrient solution, 31°, gassing with carbogen, initial tension of the organs 0.25 g) with electric stimulation (HSE stimulator, 7 V, 3 ms, 2 Hz) are recorded. After an equilibration period of 30 minutes, a dose-dependent increase in the contraction force is brought about by administration of the test substance in concentrations which increase semilogarithmically and cumulatively (for example 1×10^-6 +2×10^-6 +7×10^-6 +2×10^-5etc. mol/l), a constant inotropic response being waited for after each individual dose of the test substance before the next higher concentration is administered. The particular increase in the contraction force is expressed as a % of the initial value before administration of the substance. The concentration of the test substance which potentiates the contraction force of the atrium by 40% compared with the initial value (EC40pot.mol/l), expressed by the negative logarithm of (EC40pot.mol/l): -1 g(EC40pot.), serves as a measure of the cardiotonic activity.
# (§1) The measure used for the organ-selective activity is the ratio between (EC40pot.) left atrium and (EC50)trachea. As a measure of the activity, the ratios between (EC50)trachea values and (EC40pot.)left atrium values of theophylline and the tested compound are given.
row,Molecule,-lg(EC40pot.) left atrium
1,"O=c1ccc(-c2ccc(OC(F)(F)F)cc2)n[nH]1 [Serial No. 1, 6-(4-trifluoromethoxyphenyl)-3[2H]pyridazinone]",4.0
2,6-(4-difluoromethoxy-3-methoxyphenyl)-3[2H]pyridazinone [Serial No. 5],5.76

# Same assay, conditions: EC40pot. in mol/l; 40% increase in contraction force vs initial value; 31°; listed as 2
row,Molecule,-lg(EC40pot.) left atrium
1,"O=c1ccc(-c2ccc(OC(F)(F)F)cc2)n[nH]1 [Serial No. 1, 6-(4-trifluoromethoxyphenyl)-3[2H]pyridazinone]",4.66

# Same assay, conditions: Rattus norvegicus, EC40pot. in mol/l; 40% increase in contraction force vs initial value; 31°; read-out: -lg(EC40pot.) left atrium (converted)
row,Molecule,EC40 [µM]
1,"Cn1c(=O)c2[nH]cnc2n(C)c1=O [Theophylline, theophylline, reference compound]",417
2,"O=c1ccc(-c2ccc(OC(F)(F)C(F)F)cc2)n[nH]1 [Serial No. 3, 6-[4-(1,1,2,2-tetrafluoroethoxy)phenyl]-3[2H]pyridazinone]",61.7
3,COc1cc(-c2ccc(=O)[nH]n2)ccc1OC(F)F [compound 5],0.871
4,O=c1ccc(-c2ccc(OC(F)F)cc2)n[nH]1 [compound 6],32.4
5,O=c1ccc(-c2cccc(OC(F)F)c2)n[nH]1 [compound 7],> 100

# Same assay, conditions: activity on left atrium relative to theophylline
row,Molecule,(EC40pot.)theophylline /(EC40pot.)substance
1,"O=c1ccc(-c2ccc(OC(F)(F)C(F)F)cc2)n[nH]1 [Serial No. 3, 6-[4-(1,1,2,2-tetrafluoroethoxy)phenyl]-3[2H]pyridazinone]",6.8
2,COc1cc(-c2ccc(=O)[nH]n2)ccc1OC(F)F [compound 5],469
3,"O=c1ccc(-c2ccc(OC(F)(F)F)cc2)n[nH]1 [Serial No. 1, 6-(4-trifluoromethoxyphenyl)-3[2H]pyridazinone]",4.2
4,6-(4-difluoromethoxy-3-methoxyphenyl)-3[2H]pyridazinone [Serial No. 5],240
5,O=c1ccc(-c2ccc(OC(F)F)cc2)n[nH]1 [compound 6],12.9

# Same assay, conditions: activity on left atrium relative to theophylline; listed as 2
row,Molecule,(EC40pot.)theophylline /(EC40pot.)substance
1,"O=c1ccc(-c2ccc(OC(F)(F)F)cc2)n[nH]1 [Serial No. 1, 6-(4-trifluoromethoxyphenyl)-3[2H]pyridazinone]",19

# Test system: isolated, spontaneously contracted chain of tracheal rings of the guinea pig
# Experiment: Bronchospasmolytic action in vitro on chain of tracheal rings (relaxation of spontaneous tonic contraction)
# Assay type: cell-based
# Conditions: Cavia porcellus, EC50 in mol/l; 50% of maximum relaxation achieved by (-)isoprenaline 10^-6 mol/l; 37°; read-out: -lg(EC50) trachea (converted)
# Method: To test the bronchospasmolytic action of the compounds in vitro on a chain of tracheal rings of the guinea pig, such tracheal rings are subjected to the following procedure:
# Four parallel chains of tracheal rings (each consisting of 6 individual rings) of guinea pigs (.male. and .female., 430-600 g) in an organ bath [5 ml, Krebs-Henseleit solution with added phentolamine (10^-5 mol/l), 37°, initial tension of the organs 2 g, gassing with carbogen] develop a stable, spontaneous tonic contraction after about 20 to 30 minutes. […] Over a period of from 20 to 30 minutes, a complete dose/action curve of the test substance is thus obtained. The particular relaxation is expressed as a percentage fraction of the maximum relaxation achieved by administration of (-)isoprenaline (10^-6 mol/l).
# as §1
row,Molecule,EC50 [µM]
1,"Cn1c(=O)c2[nH]cnc2n(C)c1=O [Theophylline, theophylline, reference compound]",135
2,"O=c1ccc(-c2ccc(OC(F)(F)C(F)F)cc2)n[nH]1 [Serial No. 3, 6-[4-(1,1,2,2-tetrafluoroethoxy)phenyl]-3[2H]pyridazinone]",9.12
3,COc1cc(-c2ccc(=O)[nH]n2)ccc1OC(F)F [compound 5],1.23
4,O=c1ccc(-c2ccc(OC(F)F)cc2)n[nH]1 [compound 6],12
5,O=c1ccc(-c2cccc(OC(F)F)c2)n[nH]1 [compound 7],14.5

# Same assay, conditions: EC50 in mol/l; 50% of maximum relaxation achieved by (-)isoprenaline 10^-6 mol/l; 37°
row,Molecule,-lg(EC50) trachea
1,"O=c1ccc(-c2ccc(OC(F)(F)F)cc2)n[nH]1 [Serial No. 1, 6-(4-trifluoromethoxyphenyl)-3[2H]pyridazinone]",4.60
2,6-(4-difluoromethoxy-3-methoxyphenyl)-3[2H]pyridazinone [Serial No. 5],5.80

# Same assay, conditions: EC50 in mol/l; 50% of maximum relaxation achieved by (-)isoprenaline 10^-6 mol/l; 37°; listed as 2
row,Molecule,-lg(EC50) trachea
1,"O=c1ccc(-c2ccc(OC(F)(F)F)cc2)n[nH]1 [Serial No. 1, 6-(4-trifluoromethoxyphenyl)-3[2H]pyridazinone]",5.11

# Same assay, conditions: activity on trachea relative to theophylline
row,Molecule,(EC50)theophylline / (EC50)substance
1,"O=c1ccc(-c2ccc(OC(F)(F)C(F)F)cc2)n[nH]1 [Serial No. 3, 6-[4-(1,1,2,2-tetrafluoroethoxy)phenyl]-3[2H]pyridazinone]",13.2
2,COc1cc(-c2ccc(=O)[nH]n2)ccc1OC(F)F [compound 5],110
3,"O=c1ccc(-c2ccc(OC(F)(F)F)cc2)n[nH]1 [Serial No. 1, 6-(4-trifluoromethoxyphenyl)-3[2H]pyridazinone]",5.4
4,6-(4-difluoromethoxy-3-methoxyphenyl)-3[2H]pyridazinone [Serial No. 5],85
5,O=c1ccc(-c2ccc(OC(F)F)cc2)n[nH]1 [compound 6],11.2
6,O=c1ccc(-c2cccc(OC(F)F)c2)n[nH]1 [compound 7],9.3

# Same assay, conditions: activity on trachea relative to theophylline; listed as 2
row,Molecule,(EC50)theophylline / (EC50)substance
1,"O=c1ccc(-c2ccc(OC(F)(F)F)cc2)n[nH]1 [Serial No. 1, 6-(4-trifluoromethoxyphenyl)-3[2H]pyridazinone]",17.4

# Same assay, conditions: organ-selectivity ratio, rat left atrium vs guinea pig trachea
row,Molecule,(EC40pot.) left atrium / (EC50)trachea
1,"Cn1c(=O)c2[nH]cnc2n(C)c1=O [Theophylline, theophylline, reference compound]",3.1
2,"O=c1ccc(-c2ccc(OC(F)(F)C(F)F)cc2)n[nH]1 [Serial No. 3, 6-[4-(1,1,2,2-tetrafluoroethoxy)phenyl]-3[2H]pyridazinone]",6.8
3,COc1cc(-c2ccc(=O)[nH]n2)ccc1OC(F)F [compound 5],0.7
4,"O=c1ccc(-c2ccc(OC(F)(F)F)cc2)n[nH]1 [Serial No. 1, 6-(4-trifluoromethoxyphenyl)-3[2H]pyridazinone]",4.0
5,6-(4-difluoromethoxy-3-methoxyphenyl)-3[2H]pyridazinone [Serial No. 5],1.1
6,O=c1ccc(-c2ccc(OC(F)F)cc2)n[nH]1 [compound 6],2.7
7,O=c1ccc(-c2cccc(OC(F)F)c2)n[nH]1 [compound 7],> 6.9

# Same assay, conditions: organ-selectivity ratio, rat left atrium vs guinea pig trachea; listed as 2
row,Molecule,(EC40pot.) left atrium / (EC50)trachea
1,"O=c1ccc(-c2ccc(OC(F)(F)F)cc2)n[nH]1 [Serial No. 1, 6-(4-trifluoromethoxyphenyl)-3[2H]pyridazinone]",2.8
